Source: patent US7488754B2, “Method for the treatment of polycystic kidney disease” (Wyeth, priority 2002, dated 2009)
Marks after values point to notes of the source that are not given here.

Key:
MMP-1 = biological target: T1, MMP-1 (Homo sapiens, UniProt P03956); assay: MMP activity (IC 50), MMP-1; format: biochemical
T1 sequence (P03956 100-469): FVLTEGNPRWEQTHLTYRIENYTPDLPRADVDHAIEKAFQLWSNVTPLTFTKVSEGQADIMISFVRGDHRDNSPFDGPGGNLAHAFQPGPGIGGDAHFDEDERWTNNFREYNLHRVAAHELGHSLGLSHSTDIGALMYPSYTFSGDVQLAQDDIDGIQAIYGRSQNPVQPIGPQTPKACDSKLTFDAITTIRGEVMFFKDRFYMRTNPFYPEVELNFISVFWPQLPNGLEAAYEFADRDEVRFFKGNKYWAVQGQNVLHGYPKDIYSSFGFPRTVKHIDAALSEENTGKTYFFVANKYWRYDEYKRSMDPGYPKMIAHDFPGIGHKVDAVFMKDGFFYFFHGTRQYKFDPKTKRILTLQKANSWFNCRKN

MMP-9 = MMP-9 (Homo sapiens, UniProt P14780); assay: MMP activity (IC 50), MMP-9; format: biochemical
noncystic littermates = assay: Treatment of noncystic (phenotypically normal) littermates of bpk mice; format: in vivo; details: P-21 noncystic mice
Description: (§1) Cystic bpk mice and phenotypically normal littermates were injected with a dose of 100 mg/kg/dose of 1-acetyl-4-(4-but-2-ynyloxy-benzenesulfonyl)-2,3,4,5-tetrahydro-1 h-[1,4]benzodiazepine-3-carboxylic acid hydroxyamide given intraperitoneally once daily, in a vehicle containing 0.5% methocellulose (Fluka Biochemica, Ronkonkoma, N.Y.) and 2% Tween 80 (J T Baker, Phillipsburg, N.J.), beginning at postnatal day 7. Age-matched untreated cystic bpk mice and their noncystic littermates served as controls. At day 21, mice were sacrificed. Blood was obtained by orbital puncture prior to sacrifice. Kidney weight and body weight for treated and untreated cystic and noncystic mice were measured at sacrifice. Blood urea nitrogen (BUN) was assessed using a calorimetric assay. Serum creatinine was assessed using standard techniques in the hospital laboratory. Differences in clinical and laboratory parameters between treated and untreated cystic and noncystic mice were analyzed by two-tailed Student's t-test.

cystic bpk mice [1] = assay: Treatment of cystic bpk mice (bpk model of ARPKD); format: in vivo
Text: This model arose from a spontaneous mutation in a colony of BALB/C mice. Affected animals have many similarities to the human disease including collecting tubule (CT) cysts and biliary ectasia and fibrosis. The kidney disease has a consistent and severe phenotype. Mice homozygous for the bpk mutation have microscopic evidence of cyst formation at birth. Proximal tubule (PT) cysts are present at birth, which are gradually replaced by CT cysts as the disease progresses. Cyst expansion and kidney fibrosis result in death due to renal failure at 24-28 days. Heterozygotes show no phenotypic abnormalities and are identified by their ability to breed affected offspring. Unaffected (noncystic) littermates of cystic bpk mice are either wild-type or heterozygous at the bpk locus.
as §1
Kidneys were fixed in 4% paraformaldehyde and embedded in plastic. Segment-specific localization of cysts was assessed using lectins specific to proximal tubule (Lotus tetragonolobus, LTA), and collecting tubule (Dolichos biflorus agglutinin, DBA). Serial LTA and DBA stained sections were examined by light microscopy and assessed for severity of cystic dilatations in PTs and CTs, expressed on a scale of 0 to 5 using a modified cystic index: • 0=No cysts • 1=≦0.11 mm • 2=0.12-0.19 mm • 3=0.20-0.27 mm • 4=0.28-0.35 mm • 5=≧0.36 mm The total number of CT (DBA+/LTA−) cysts and PT (LTA+/DBA−) cysts within a section were counted and expressed as a ratio.
Mice were treated from day 7 of life until day 21, then sacrificed. […] The results are listed below in Tables 1, 2, and 3.

MMP-13 = MMP-13 (Homo sapiens, UniProt P45452); assay: MMP activity (IC 50), MMP-13; format: biochemical
TACE = TACE (Homo sapiens, UniProt P78536); assay: TACE activity (IC 50); format: biochemical
cystic bpk mice [2] = assay: Treatment of cystic bpk mice (bpk model of ARPKD); format: in vivo; details: B 50 mg/kg/day once daily IP day 7 to 21
[3] = 100 mg/kg/dose intraperitoneally once daily from postnatal day 7, sacrifice day 21
[4] = P-21 cystic bpk mice, 100 mg/kg/dose intraperitoneally once daily from postnatal day 7, sacrifice day 21

TACE, sequence (P78536 215-824): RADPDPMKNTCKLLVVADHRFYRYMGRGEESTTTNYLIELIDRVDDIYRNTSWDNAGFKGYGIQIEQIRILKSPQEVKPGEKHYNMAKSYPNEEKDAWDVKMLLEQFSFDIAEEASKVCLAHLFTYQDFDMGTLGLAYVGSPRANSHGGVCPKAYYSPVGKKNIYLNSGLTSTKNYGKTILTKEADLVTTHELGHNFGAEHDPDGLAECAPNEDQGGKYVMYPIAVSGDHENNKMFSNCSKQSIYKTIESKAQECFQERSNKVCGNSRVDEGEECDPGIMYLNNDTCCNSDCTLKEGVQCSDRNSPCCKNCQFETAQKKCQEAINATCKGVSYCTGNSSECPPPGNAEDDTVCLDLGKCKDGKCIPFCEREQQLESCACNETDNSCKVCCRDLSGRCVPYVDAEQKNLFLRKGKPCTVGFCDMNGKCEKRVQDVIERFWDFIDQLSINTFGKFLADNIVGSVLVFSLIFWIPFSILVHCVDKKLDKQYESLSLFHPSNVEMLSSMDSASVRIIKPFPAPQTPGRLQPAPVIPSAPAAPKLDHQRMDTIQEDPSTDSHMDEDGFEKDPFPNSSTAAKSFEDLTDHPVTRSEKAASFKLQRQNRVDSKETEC
MMP-9, sequence (P14780 94-707): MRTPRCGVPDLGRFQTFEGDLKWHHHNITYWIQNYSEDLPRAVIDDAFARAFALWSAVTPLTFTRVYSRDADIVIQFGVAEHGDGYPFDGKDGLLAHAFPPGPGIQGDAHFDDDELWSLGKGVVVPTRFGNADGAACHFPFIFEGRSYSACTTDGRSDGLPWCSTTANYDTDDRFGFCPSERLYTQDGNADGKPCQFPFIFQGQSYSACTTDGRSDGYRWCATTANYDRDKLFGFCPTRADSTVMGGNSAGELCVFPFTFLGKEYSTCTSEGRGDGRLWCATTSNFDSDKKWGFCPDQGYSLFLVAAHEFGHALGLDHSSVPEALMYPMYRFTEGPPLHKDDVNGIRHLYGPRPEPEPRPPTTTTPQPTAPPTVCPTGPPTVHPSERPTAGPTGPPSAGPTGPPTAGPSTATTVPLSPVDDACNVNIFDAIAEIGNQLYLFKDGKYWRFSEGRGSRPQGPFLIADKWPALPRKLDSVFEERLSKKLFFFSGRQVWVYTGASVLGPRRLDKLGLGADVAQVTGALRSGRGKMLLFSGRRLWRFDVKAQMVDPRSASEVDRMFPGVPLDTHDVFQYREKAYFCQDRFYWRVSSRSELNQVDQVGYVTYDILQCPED

With `CC#CCOc1ccc(S(=O)(=O)N2Cc3ccccc3N(C(C)=O)CC2C(=O)NO)cc1` (stereo not drawn) [A, 1-Acetyl-4-(4-But-2-ynyloxy-Benzenesulfonyl)-2,3,4,5-Tetrahydro-1H-[1,4]Benzodiazepine-3-Carboxylic Acid Hydroxyamide] the IC50 (MMP-1) was 6.6 nM, the IC50 (MMP-9) was 12 nM and the BUN (noncystic littermates; 100 mg/kg/dose intraperitoneally once daily from postnatal day 7, blood at day 21) was 17 +/− 4^d mg/dl. For the same compound, the “Body Weight” value (noncystic littermates; [3]) was 8.5 +/− 1.0 grams, the “Kidney Weight” value (noncystic littermates; [3]) was 0.13 +/− 0.01 grams and the “Kidney Weight to Body Weight” value (noncystic littermates; [3]) was 1.5 +/− 0.1%. For the same compound, the Creatinine (noncystic littermates; serum, 100 mg/kg/dose intraperitoneally once daily from postnatal day 7, blood at day 21) was 0.15 +/− 0.05^e mg/dl, the BUN (cystic bpk mice [1]; P-21 cystic bpk mice, 100 mg/kg/dose intraperitoneally once daily from postnatal day 7, blood at day 21) was 33 +/− 4^b** mg/dl and the “Body Weight” value (cystic bpk mice [1]; [4]) was 8.2 +/− 1.3 grams. The “Kidney Weight” value (cystic bpk mice [1]; [4]) was 0.93 +/− 0.2** grams, the “Kidney Weight to Body Weight” value (cystic bpk mice [1]; [4]) was 11.2 +/− 1.3** percent and the “CT Cystic Index (graded 1–5)” value (cystic bpk mice [1]; collecting tubule cysts, DBA stained kidney sections, cystic mice, 100 mg/kg/dose IP once daily day 7 to 21) was 3.2 +/− 0.4**. The “CT Cyst Size Range” value (cystic bpk mice [1]; collecting tubule cysts, cystic mice, 100 mg/kg/dose IP once daily day 7 to 21) was 0.012–0.29 mm, the “Cystic Kidney Weight to Body Weight” value (cystic bpk mice [1]; cystic bpk mice, A 100 mg/kg/dose IP once daily day 7 to 21) was 11.2 +/− 1.3% and the “PT Cystic Index (graded 1–5)” value (cystic bpk mice [1]; proximal tubule cysts, LTA stained kidney sections, cystic mice, 100 mg/kg/dose IP once daily day 7 to 21) was 1.8 +/− 0.4. For the same compound, the “PT Cyst Size Range” value (cystic bpk mice [1]; proximal tubule cysts, cystic mice, 100 mg/kg/dose IP once daily day 7 to 21) was 0.012–0.17 mm, the Creatinine (cystic bpk mice [1]; serum, P-21 cystic bpk mice, 100 mg/kg/dose intraperitoneally once daily from postnatal day 7, blood at day 21) was 0.18 +/− 0.05^b mg/dl and the “Cystic CT/PT Ratio” value (cystic bpk mice [1]; total number of CT cysts to PT cysts within a section, cystic mice, 100 mg/kg/dose IP once daily day 7 to 21) was 1.2**. The IC50 (MMP-13) was 3 nM and the IC50 (TACE) was 8.4 nM.

With `O=C(NO)C1(S(=O)(=O)c2ccc(Oc3ccc(Cl)cc3)cc2)CCN(Cc2ccccc2)CC1` [B, 1-Benzyl-4-[4-(4-chloro-phenoxy)-benzenesulfonyl]-piperidine-4-carboxylic acid hydroxamide] the “Cystic Kidney Weight to Body Weight” value (cystic bpk mice [2]) was 15.3 +/− 1.7%.
